The structures appear in SMILES notation. Where two headings read alike, the source gives them in different places.

The procedure of data set [1]:
Thermal stabilities were measured by immobilizing an approximate 0.15-0.20 microns film of the ionic liquid on the inner wall of a fused silica capillary. The capillary was then heated slowly in an oven and a very sensitive flame ionization detector (or mass spectrometer) used to detect any volatilization or decomposition of the ionic liquid. There are several advantages of using this set-up to measure the thermal stabilities of ionic liquids. The thermal stability is measured in the absence of oxygen by purging the capillary with a continuous flow of an inert gas such as helium, hydrogen, or nitrogen. […] Finally, this approach can use mass spectrometry detection to determine the likely volatilization/decomposition products.

For data set [2] the following is noted: exposed to the atmosphere and heated; cited from earlier work.
The nature of data set [3]: Solvation interaction parameters by inverse gas-liquid chromatography (Abraham solvation model). The data set is classed as physicochemical.
The nature of data set [4]: Refractive index (Abbe-3L refractometer). The data set is classed as physicochemical. As to conditions: 23° C.
Data set [5] in a line: Density (2.0 mL volumetric tube, weighing by difference). The data set is classed as physicochemical. The conditions noted are these: 23° C.
Data set [6] can be described thus: Surface tension (DuNuoy Tensiometer). The data set is classed as physicochemical. As to conditions: room temperature (23° C.).
The source holds these as a separate data set.

Regarding `CCCCn1cc[n+](C)c1.[Cl-]` [BMIM-Cl, 1-butyl-3-methylimidazolium chloride, reference compound], the “thermal stability (volatilization/decomposition temperature)” value in data set [1] (0.15-0.20 micron film in fused silica capillary, helium flow, FID, tested only up to 400° C.) stood at 145 °C. For the same molecule, the “temperature of obvious signs of decomposition” value in data set [2] is not below 150 °C.
As for `C[N+]1(CCCCCCCCC[N+]2(C)CCCC2)CCCC1.O=S(=O)([N-]S(=O)(=O)C(F)(F)F)C(F)(F)F.O=S(=O)([N-]S(=O)(=O)C(F)(F)F)C(F)(F)F` [C9(mpy)2-NTf2, 1,9-di(methylpyrrolidinium)nonane di-bis[(trifluoromethyl)sulfonyl]imidate], in data set [3] (40° C.), the “a (hydrogen bond basicity)” value is recorded as 1.98; the “b (hydrogen bond acidity)” value worked out at 0.32; the “c (interaction parameter table, constant)” value is recorded as −2.83; the “l (dispersion forces)” value is reported as 0.62. Besides, in data set [3] (40° C.), the “r (interaction via nonbonding and π-electrons)” value worked out at 0.27; the “s (dipolarity/polarizability)” value is given as 1.71. Moreover, in data set [3] (70° C.), the “a (hydrogen bond basicity)” value came out at 1.65; the “b (hydrogen bond acidity)” value was found to be 0.35; the “c (interaction parameter table, constant)” value is on record as −2.85; the “l (dispersion forces)” value was determined as 0.48. Besides, in data set [3] (70° C.), the “r (interaction via nonbonding and π-electrons)” value worked out at 0.34; the “s (dipolarity/polarizability)” value was determined as 1.52. Moreover, in data set [3] (100° C.), the “a (hydrogen bond basicity)” value is 1.48; the “b (hydrogen bond acidity)” value was determined as 0.15; the “c (interaction parameter table, constant)” value was −2.99; the “l (dispersion forces)” value stood at 0.42. Further, in data set [3] (100° C.), the “r (interaction via nonbonding and π-electrons)” value is recorded as 0.23; the “s (dipolarity/polarizability)” value worked out at 1.49. Also, the “thermal stability (volatilization/decomposition temperature)” value in data set [1] is more than 400 °C. In addition, in data set [4], the “Refractive Index” value stood at 1.436. The molecule further displayed a Density in data set [5] of 1.41 g/mL. The “Surface Tension” value in data set [6] came to 42.2 dynes/cm. Besides, the “Miscibility with Heptane” value (heptane) was “Immiscible”. Moreover, under “water”, the “Miscibility with Water” value is reported as “Immiscible”.

These data come from patent publication US8956445B2, “High stability diionic liquid salts” (Sigma-Aldrich Co., priority 2004, dated 2015).
